Test results as given in PubChem BioAssay (NCI).
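Interpolation was linear, between the two tested concentrations surrounding the appropriate level; five concentrations were tested over 48 hours in 96-well plates. Abbreviation: GI50, concentration required for 50% inhibition of growth. At the TGI there is no net growth.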

Columns and labels:
Experiment in all cases: growth of human tumour cells (NCI), 48 h
786-0 renal = test system: 786-0 renal
A498 renal = test system: A498 renal
A549 NSCLC = test system: A549 NSCLC
ACHN renal = test system: ACHN renal
BT-549 breast = test system: BT-549 breast
CAKI-1 renal = test system: CAKI-1 renal
CCRF-CEM leukemia = test system: CCRF-CEM leukemia
COLO 205 colon = test system: COLO 205 colon
DU-145 prostate = test system: DU-145 prostate
EKVX NSCLC = test system: EKVX NSCLC
HCC-2998 colon = test system: HCC-2998 colon
HCT-116 colon = test system: HCT-116 colon
HCT-15 colon = test system: HCT-15 colon
HL-60(TB) leukemia = test system: HL-60(TB) leukemia
HOP-62 NSCLC = test system: HOP-62 NSCLC
HOP-92 NSCLC = test system: HOP-92 NSCLC
HS 578T breast = test system: HS 578T breast
HT29 colon = test system: HT29 colon
IGROV1 ovarian = test system: IGROV1 ovarian
K-562 leukemia = test system: K-562 leukemia
KM12 colon = test system: KM12 colon
LOX IMVI melanoma = test system: LOX IMVI melanoma
M14 melanoma = test system: M14 melanoma
MALME-3M melanoma = test system: MALME-3M melanoma
MCF7 breast = test system: MCF7 breast
MDA-MB-231 breast = test system: MDA-MB-231 breast
MDA-MB-435 = test system: MDA-MB-435
MOLT-4 leukemia = test system: MOLT-4 leukemia
NCI-H226 lung = test system: NCI-H226 lung
NCI-H23 lung = test system: NCI-H23 lung
NCI-H460 lung = test system: NCI-H460 lung
NCI-H522 lung = test system: NCI-H522 lung
NCI/ADR-RES ovarian = test system: NCI/ADR-RES ovarian
OVCAR-3 ovarian = test system: OVCAR-3 ovarian
OVCAR-4 ovarian = test system: OVCAR-4 ovarian
OVCAR-5 ovarian = test system: OVCAR-5 ovarian
OVCAR-8 ovarian = test system: OVCAR-8 ovarian
PC-3 prostate = test system: PC-3 prostate
RPMI-8226 leukemia = test system: RPMI-8226 leukemia
RXF 393 renal = test system: RXF 393 renal
SF-268 CNS = test system: SF-268 CNS
SF-295 CNS = test system: SF-295 CNS
SF-539 CNS = test system: SF-539 CNS
SK-MEL-2 melanoma = test system: SK-MEL-2 melanoma
SK-MEL-28 melanoma = test system: SK-MEL-28 melanoma
SK-MEL-5 melanoma = test system: SK-MEL-5 melanoma
SK-OV-3 ovarian = test system: SK-OV-3 ovarian
SN12C renal = test system: SN12C renal
SNB-19 CNS = test system: SNB-19 CNS
SNB-75 CNS = test system: SNB-75 CNS
SR leukemia = test system: SR leukemia
SW-620 colon = test system: SW-620 colon
T-47D breast = test system: T-47D breast
TK-10 renal = test system: TK-10 renal
U251 CNS = test system: U251 CNS
UACC-257 melanoma = test system: UACC-257 melanoma
UACC-62 melanoma = test system: UACC-62 melanoma
UO-31 renal = test system: UO-31 renal

COc1cc2c(cc1O)N=C[C@@H]1C[C@@H](F)CN1C2=O
GI50 (786-0 renal): 2050 nM
TGI (786-0 renal): 12300 nM
GI50 (A498 renal): 938 nM
TGI (A498 renal): 2890 nM
GI50 (A549 NSCLC): 7970 nM
TGI (A549 NSCLC): > 19700 nM
GI50 (ACHN renal): 2580 nM
TGI (ACHN renal): 6150 nM
GI50 (BT-549 breast): 869 nM
TGI (BT-549 breast): 5830 nM
GI50 (CAKI-1 renal): 281 nM
TGI (CAKI-1 renal): 1500 nM
GI50 (CCRF-CEM leukemia): 304 nM
TGI (CCRF-CEM leukemia): 3300 nM
GI50 (COLO 205 colon): 3180 nM
TGI (COLO 205 colon): 11500 nM
GI50 (DU-145 prostate): 964 nM
TGI (DU-145 prostate): 8860 nM
GI50 (EKVX NSCLC): 2850 nM
TGI (EKVX NSCLC): 9800 nM
GI50 (HCC-2998 colon): 1980 nM
TGI (HCC-2998 colon): 5660 nM
GI50 (HCT-116 colon): 1830 nM
TGI (HCT-116 colon): 5940 nM
GI50 (HCT-15 colon): 2890 nM
TGI (HCT-15 colon): 9330 nM
GI50 (HL-60(TB) leukemia): 588 nM
TGI (HL-60(TB) leukemia): 10100 nM
GI50 (HOP-62 NSCLC): 2550 nM
TGI (HOP-62 NSCLC): 9650 nM
GI50 (HOP-92 NSCLC): 269 nM
TGI (HOP-92 NSCLC): 719 nM
GI50 (HS 578T breast): 96.4 nM
TGI (HS 578T breast): 2130 nM
GI50 (HT29 colon): 4100 nM
TGI (HT29 colon): > 44000 nM
GI50 (IGROV1 ovarian): 1650 nM
TGI (IGROV1 ovarian): 8970 nM
GI50 (K-562 leukemia): 367 nM
TGI (K-562 leukemia): 4810 nM
GI50 (KM12 colon): 1810 nM
TGI (KM12 colon): 5040 nM
GI50 (LOX IMVI melanoma): 2030 nM
TGI (LOX IMVI melanoma): 7210 nM
GI50 (M14 melanoma): 1610 nM
TGI (M14 melanoma): 3730 nM
GI50 (MALME-3M melanoma): 789 nM
TGI (MALME-3M melanoma): 2880 nM
GI50 (MCF7 breast): 608 nM
TGI (MCF7 breast): 9060 nM
GI50 (MDA-MB-231 breast): 1840 nM
TGI (MDA-MB-231 breast): 6210 nM
GI50 (MDA-MB-435): 1550 nM
TGI (MDA-MB-435): 3510 nM
GI50 (MOLT-4 leukemia): 283 nM
TGI (MOLT-4 leukemia): 1230 nM
GI50 (NCI-H226 lung): 2370 nM
TGI (NCI-H226 lung): 5390 nM
GI50 (NCI-H23 lung): 1820 nM
TGI (NCI-H23 lung): 4440 nM
GI50 (NCI-H460 lung): 1790 nM
TGI (NCI-H460 lung): 4610 nM
GI50 (NCI-H522 lung): 289 nM
TGI (NCI-H522 lung): 970 nM
GI50 (NCI/ADR-RES ovarian): 1870 nM
TGI (NCI/ADR-RES ovarian): 6150 nM
TGI (OVCAR-3 ovarian): 808 nM
GI50 (OVCAR-4 ovarian): 3930 nM
TGI (OVCAR-4 ovarian): 14500 nM
GI50 (OVCAR-5 ovarian): 965 nM
TGI (OVCAR-5 ovarian): 6660 nM
GI50 (OVCAR-8 ovarian): 6370 nM
TGI (OVCAR-8 ovarian): 13900 nM
GI50 (PC-3 prostate): 1830 nM
TGI (PC-3 prostate): 9180 nM
GI50 (RPMI-8226 leukemia): 216 nM
TGI (RPMI-8226 leukemia): 552 nM
GI50 (RXF 393 renal): 898 nM
TGI (RXF 393 renal): 2160 nM
GI50 (SF-268 CNS): 449 nM
TGI (SF-268 CNS): 9970 nM
GI50 (SF-295 CNS): 712 nM
TGI (SF-295 CNS): 4330 nM
GI50 (SF-539 CNS): 1190 nM
TGI (SF-539 CNS): 4320 nM
GI50 (SK-MEL-2 melanoma): 1160 nM
GI50 (SK-MEL-28 melanoma): 2900 nM
TGI (SK-MEL-28 melanoma): 9390 nM
GI50 (SK-MEL-5 melanoma): 817 nM
TGI (SK-MEL-5 melanoma): 2320 nM
GI50 (SK-OV-3 ovarian): 5910 nM
TGI (SK-OV-3 ovarian): 18300 nM
GI50 (SN12C renal): 2520 nM
TGI (SN12C renal): 8710 nM
GI50 (SNB-19 CNS): 2790 nM
TGI (SNB-19 CNS): 8660 nM
GI50 (SNB-75 CNS): 15500 nM
TGI (SNB-75 CNS): 52400 nM
GI50 (SR leukemia): 173 nM
TGI (SR leukemia): 602 nM
GI50 (SW-620 colon): 1160 nM
TGI (SW-620 colon): 4900 nM
GI50 (T-47D breast): 5290 nM
TGI (T-47D breast): 32200 nM
GI50 (TK-10 renal): 1900 nM
TGI (TK-10 renal): 13000 nM
GI50 (U251 CNS): 1830 nM
TGI (U251 CNS): 10900 nM
GI50 (UACC-257 melanoma): 17500 nM
TGI (UACC-257 melanoma): 34400 nM
GI50 (UACC-62 melanoma): 1810 nM
TGI (UACC-62 melanoma): 3460 nM
GI50 (UO-31 renal): 1140 nM
TGI (UO-31 renal): 9620 nM
